Laboratory results taken from patent US10111822B2, “External dermal composition for anti-ageing and method for producing the same” (Hayashibara Co., Ltd., priority 2012, dated 2018).

Legend:
[1] = test system: hyaluronic acid; assay: Hyaluronic acid production in NHEK cells (ELISA); type: cell-based, human; conditions: 3 days, control 1003 ± 111.6
Description: In accordance with “Evaluation Method for Enhancing Hyaluronic acid Synthesis” disclosed in “Evaluation and Experimental Manual for Humectancy, Skin whitening, Anti-wrinkle, and Anti-oxidation”, edited by Hitoshi Masaki, published by Fragrance Journal, pp. 94 to 97, 2012, NHEK cells as a model for typical normal human epidermal cells were suspended in EpiLife medium (pH 7.4), commercialized by Invitrogen Corporation, Calif., USA, inoculated to 12-well microplates at a cell density of 5×10^4 cells/well, and incubated overnight under conditions of 37° C. and 5% v/v CO2. Thereafter, the cell culture medium was replaced with a fresh HuMedia-KG2 medium commercialized by Kurabo Industries Ltd., Osaka, Japan; and “AA2G”, a particulate composition containing anhydrous crystalline ascorbic acid 2-glucoside, commercialized by Hayashibara Co., Ltd., Okayama, Japan, was added to each well to give a final concentration of 0.25, 0.5, or 1 mM, followed by culturing the cells for three days under the conditions of 37° C. and 5% v/v CO2. After completion of the culture, the supernatant in each well was immediately collected and quantified for hyaluronic acid by “Hyaluronan, DuoSet Kit”, product code: DY3614, a product name of a commercialized enzyme-linked immunosorbent assay (ELISA) purchased from R & D Systems, Minneapolis, USA. As a control, there was provided a culture system, where cells are cultured similarly as above except for not adding ascorbic acid 2-glucoside.

[2] = test system: ZO-1; assay: TJ-related protein ZO-1 in NHEK cells (Western); type: cell-based, human; conditions: 3 days, CaCl2 positive control = 100%, no addition 38%
Description: The following experiment was conducted to examine the effect of ascorbic acid 2-glucoside on the production of TJ-related proteins that constitute cell-cell adhesion structures by focusing on occludin and ZO-1 that are focused on as TJ-related proteins known to exist in a granular layer of epidermis: As a model for typical normal human epidermal cells, NHEK cells were suspended in EpiLife medium (pH 7.4); inoculated to 12-well microplates at a cell density of 1×10^5 cells/well; cultured overnight under the conditions of 37° C. and 5% v/v CO2; and further cultured for three days under the conditions of 37° C. and 5% v/v CO2 after adding either CaCl2 as a positive control to each well to give a final concentration of 0.5 mM, or “AA2G”, a product name of a particulate composition containing anhydrous crystalline ascorbic acid 2-glucoside, commercialized by Hayashibara Co., Ltd., Okayama, Japan, to give a final concentration of 0.5 or 1 mM. […] A sample of 20 μg protein for each lane per each cell extract in respective wells was applied to sodium dodecyl sulfate polyacrylamide gel electrophoresis (SDS-PAGE) with 10% w/v SDS containing DTT, followed by assaying the concentration of occludin or ZO-1 in each cell extract with “Luminate Western HRP Substrates”, a product name of a premixed, ready-to-use chemiluminescent detection reagent using an internal standard “α-Tubulin”, commercialized by Merck KGaA, Darmstadt, Germany, wherein there were used “F-11”, a product name of an anti-occludin mouse monoclonal antibody, commercialized by Santa Cruz Biotechnology, Inc., Texas, USA, or “ZO1-1A12”, a product name of a ZO-1 mouse monoclonal antibody, commercialized by Invitrogen Corporation, Calif., USA, was used as a first antibody; and “PO447”, a product name of a horseradish peroxidase (HRPO) labeled anti-mouse IgG, commercialized by DAKO Japan Inc., Tokyo, Japan, or “PO448”, a product name of an HRPO-labeled anti-rabbit IgG, commercialized by DAKO Japan Inc., Tokyo, Japan, as a secondary antibody. […]

O=C1O[C@H]([C@@H](O)CO)C(O)=C1O[C@H]1O[C@H](CO)[C@@H](O)[C@H](O)[C@H]1O [ascorbic acid 2-glucoside, 2-O-α-D-glucosyl-L-ascorbic acid]
Hyaluronic acid concentration in culture supernatant ([1]; 0.25 mM): 1222 ± 93.6 ng/mL | Hyaluronic acid concentration in culture supernatant ([1]; 0.5 mM): 1268 ± 125.2 ng/mL | Hyaluronic acid concentration in culture supernatant ([1]; 1 mM): 1436 ± 216 ng/mL | ZO-1 Concentration in cell extract ([2]; 0.5 mM): 72% | ZO-1 Concentration in cell extract ([2]; 1 mM): 92%
